Laboratory results taken from US10954246B2, “Compound of EOC315 Mod.I crystal form and preparation method thereof” (Taizhou EOC Pharma Co., Ltd., priority 2017, dated 2021).
Counter-ions that a name gives are not always drawn.

Experiments:
[1] = Stability evaluation under accelerated condition (40° C., RH 75%); format: physicochemical
Description: Long-term stability over twelve months was evaluated at 25° C. and a relative humidity of 60%; or accelerated stability over six months was evaluated at 40° C. and a relative humidity of 75%.

[2] = Thermogravimetric analysis (TGA); format: physicochemical
Description: The DTA curve of a test sample has an endothermic peak at 198.1° C., which is consistent with the DSC result.

[3] = system: Colo-205 human CRC xenograft; assay: Colo-205 human CRC xenograft model, tumor microvessel histomorphometry (CD31); format: in vivo; settings: for decrease of MVA: 3 days after the administration
Description: The EOC315 crystalline form Mod. […] Therefore, a study was conducted in a Colo-205 human CRC xenograft model to evaluate whether the anti-tumor activity observed in vivo is consistent with the hypothesis. The microvessel density of a tumor was determined by the quantitative histomorphometry after the endothelial cell marker CD31 was stained. Four hours after the first drug delivery, the declining level of the tumor MVA was further increased compared with each solvent control group (32%; P<0.05). Twenty-four hours after the administration, the declining level of the tumor MVA was further increased (53%; P<0.01).

[4] = Month 0, limit 0.10%, listed as 151211
[5] = Month 0, limit 0.10%, listed as 151212
[6] = Month 0, limit 0.10%, listed as 151213
[7] = Month 1, limit 0.10%, listed as 151211
[8] = Month 1, limit 0.10%, listed as 151212
[9] = Month 1, limit 0.10%, listed as 151213
[10] = Month 1, limit 0.17%, listed as 151211
[11] = Month 1, limit 0.17%, listed as 151212
[12] = Month 1, limit 0.17%, listed as 151213
[13] = Month 2, limit 0.10%, listed as 151211
[14] = Month 2, limit 0.10%, listed as 151212
[15] = Month 2, limit 0.10%, listed as 151213
[16] = Month 2, limit 0.17%, listed as 151211
[17] = Month 2, limit 0.17%, listed as 151212
[18] = Month 2, limit 0.17%, listed as 151213
[19] = Month 3, limit 0.10%, listed as 151211
[20] = Month 3, limit 0.10%, listed as 151212
[21] = Month 3, limit 0.10%, listed as 151213
[22] = Month 6, limit 0.10%, listed as 151211
[23] = Month 6, limit 0.10%, listed as 151212
[24] = Month 6, limit 0.10%, listed as 151213
[25] = Month 6, limit 0.17%, listed as 151211
[26] = Month 6, limit 0.17%, listed as 151212
[27] = Month 6, limit 0.17%, listed as 151213

CNC(=O)c1cc(OCc2nnc(Nc3ccc(Cl)cc3)c3ccoc23)ccn1 [EOC315 crystalline form Mod. I, 4-(4-chloroanilino)-7-(2-methylaminocarbonyl-4-oxymethyl)pyridylfuro[2,3-d]pyridazine mesylate]
Related substance Impurity 5 [1, 4]: 0.02%
Related substance Impurity 6 [1, 4]: 0.01%
Related substance Impurity 5 [1, 5]: 0.01%
Related substance Impurity 6 [1, 5]: Undetected
Related substance Impurity 5 [1, 6]: Undetected
Related substance Impurity 6 [1, 6]: Undetected
Related substance Maximum single impurity ([1]; Month 0, limit 0.15%, listed as 151211): 0.0079%
Related substance Maximum single impurity ([1]; Month 0, limit 0.15%, listed as 151212): 0.012%
Related substance Maximum single impurity ([1]; Month 0, limit 0.15%, listed as 151213): 0.0085%
Related substance Impurity 1 ([1]; Month 0, limit 0.17%): Undetected
Related substance Impurity 2 ([1]; Month 0, limit 0.17%): Undetected
Related substance Impurity 3 ([1]; Month 0, limit 0.17%, listed as 151211): 0.016%
Related substance Impurity 3 ([1]; Month 0, limit 0.17%, listed as 151212): 0.011%
Related substance Impurity 3 ([1]; Month 0, limit 0.17%, listed as 151213): 0.011%
Related substance Total impurity ([1]; Month 0, limit 1.0%, listed as 151211): 0.53%
Related substance Total impurity ([1]; Month 0, limit 1.0%, listed as 151212): 0.66%
Related substance Total impurity ([1]; Month 0, limit 1.0%, listed as 151213): 0.52%
Related substance Impurity 4 ([1]; Month 0, limit 3.0%, listed as 151211): 0.36%
Related substance Impurity 4 ([1]; Month 0, limit 3.0%, listed as 151212): 0.46%
Related substance Impurity 4 ([1]; Month 0, limit 3.0%, listed as 151213): 0.35%
Crystalline form ([1]; Month 0, limit ModI): ModI
Related substance Impurity 5 [1, 7]: Undetected
Related substance Impurity 6 [1, 7]: 0.01%
Related substance Impurity 5 [1, 8]: 0.01%
Related substance Impurity 6 [1, 8]: Undetected
Related substance Impurity 5 [1, 9]: 0.01%
Related substance Impurity 6 [1, 9]: Undetected
Related substance Maximum single impurity ([1]; Month 1, limit 0.15%, listed as 151211): 0.011%
Related substance Maximum single impurity ([1]; Month 1, limit 0.15%, listed as 151212): Undetected
Related substance Maximum single impurity ([1]; Month 1, limit 0.15%, listed as 151213): 0.0077%
Related substance Impurity 1 ([1]; Month 1, limit 0.17%): Undetected
Related substance Impurity 2 [1, 10]: 0.0031%
Related substance Impurity 3 [1, 10]: 0.0040%
Related substance Impurity 2 [1, 11]: 0.0026%
Related substance Impurity 3 [1, 11]: 0.0037%
Related substance Impurity 2 [1, 12]: Undetected
Related substance Impurity 3 [1, 12]: 0.0035%
Related substance Total impurity ([1]; Month 1, limit 1.0%, listed as 151211): 0.5%
Related substance Total impurity ([1]; Month 1, limit 1.0%, listed as 151212): 0.6%
Related substance Total impurity ([1]; Month 1, limit 1.0%, listed as 151213): 0.5%
Related substance Impurity 4 ([1]; Month 1, limit 3.0%, listed as 151211): 0.4%
Related substance Impurity 4 ([1]; Month 1, limit 3.0%, listed as 151212): 0.5%
Related substance Impurity 4 ([1]; Month 1, limit 3.0%, listed as 151213): 0.3%
Related substance Impurity 5 [1, 13]: Undetected
Related substance Impurity 6 [1, 13]: 0.01%
Related substance Impurity 5 [1, 14]: 0.02%
Related substance Impurity 6 [1, 14]: Undetected
Related substance Impurity 5 [1, 15]: Undetected
Related substance Impurity 6 [1, 15]: Undetected
Related substance Maximum single impurity ([1]; Month 2, limit 0.15%, listed as 151211): 0.0045%
Related substance Maximum single impurity ([1]; Month 2, limit 0.15%, listed as 151212): 0.0062%
Related substance Maximum single impurity ([1]; Month 2, limit 0.15%, listed as 151213): 0.0067%
Related substance Impurity 1 ([1]; Month 2, limit 0.17%): Undetected
Related substance Impurity 2 [1, 16]: Undetected
Related substance Impurity 3 [1, 16]: 0.0013%
Related substance Impurity 2 [1, 17]: 0.0036%
Related substance Impurity 3 [1, 17]: 0.0070%
Related substance Impurity 2 [1, 18]: 0.0035%
Related substance Impurity 3 [1, 18]: 0.014%
Related substance Total impurity ([1]; Month 2, limit 1.0%, listed as 151211): 0.6%
Related substance Total impurity ([1]; Month 2, limit 1.0%, listed as 151212): 0.7%
Related substance Total impurity ([1]; Month 2, limit 1.0%, listed as 151213): 0.6%
Related substance Impurity 4 ([1]; Month 2, limit 3.0%, listed as 151211): 0.4%
Related substance Impurity 4 ([1]; Month 2, limit 3.0%, listed as 151212): 0.5%
Related substance Impurity 4 ([1]; Month 2, limit 3.0%, listed as 151213): 0.4%
Related substance Impurity 5 [1, 19]: 0.01%
Related substance Impurity 6 [1, 19]: 0.02%
Related substance Impurity 5 [1, 20]: 0.01%
Related substance Impurity 6 [1, 20]: Undetected
Related substance Impurity 5 [1, 21]: Undetected
Related substance Impurity 6 [1, 21]: 0.01% d
Related substance Maximum single impurity ([1]; Month 3, limit 0.15%): Undetected
Related substance Impurity 1 ([1]; Month 3, limit 0.17%): Undetected
Related substance Impurity 2 ([1]; Month 3, limit 0.17%): Undetected
Related substance Impurity 3 ([1]; Month 3, limit 0.17%): Undetected
Related substance Total impurity ([1]; Month 3, limit 1.0%, listed as 151211): 0.5%
Related substance Total impurity ([1]; Month 3, limit 1.0%, listed as 151212): 0.6%
Related substance Total impurity ([1]; Month 3, limit 1.0%, listed as 151213): 0.5%
Related substance Impurity 4 ([1]; Month 3, limit 3.0%, listed as 151211): 0.4%
Related substance Impurity 4 ([1]; Month 3, limit 3.0%, listed as 151212): 0.5%
Related substance Impurity 4 ([1]; Month 3, limit 3.0%, listed as 151213): 0.37%
Related substance Impurity 5 [1, 22]: 0.01%
Related substance Impurity 6 [1, 22]: 0.01%
Related substance Impurity 5 [1, 23]: 0.01%
Related substance Impurity 6 [1, 23]: Undetected
Related substance Impurity 5 [1, 24]: Undetected
Related substance Impurity 6 [1, 24]: Undetected
Related substance Maximum single impurity ([1]; Month 6, limit 0.15%, listed as 151211): 0.030%
Related substance Maximum single impurity ([1]; Month 6, limit 0.15%, listed as 151212): 0.032%
Related substance Maximum single impurity ([1]; Month 6, limit 0.15%, listed as 151213): 0.029%
Related substance Impurity 1 ([1]; Month 6, limit 0.17%): Undetected
Related substance Impurity 2 [1, 25]: 0.0061%
Related substance Impurity 3 [1, 25]: 0.045%
Related substance Impurity 2 [1, 26]: 0.0043%
Related substance Impurity 3 [1, 26]: 0.044%
Related substance Impurity 2 [1, 27]: 0.045%
Related substance Impurity 3 [1, 27]: 0.060%
Related substance Total impurity ([1]; Month 6, limit 1.0%, listed as 151211): 0.7%
Related substance Total impurity ([1]; Month 6, limit 1.0%, listed as 151212): 0.8%
Related substance Total impurity ([1]; Month 6, limit 1.0%, listed as 151213): 0.7%
Related substance Impurity 4 ([1]; Month 6, limit 3.0%, listed as 151211): 0.4%
Related substance Impurity 4 ([1]; Month 6, limit 3.0%, listed as 151212): 0.5%
Related substance Impurity 4 ([1]; Month 6, limit 3.0%, listed as 151213): 0.4%
Crystalline form ([1]; Month 6, limit ModI): ModI
degradation temperature [2]: about 241.71 °C
decrease of MVA ([3]; at 4 hours): 64%
decrease of MVA ([3]; at 6 hours): 68%
growth of tumor cells ([3]; conclusion from the xenograft results): significantly suppressed
decline of tumor MVA vs solvent control ([3]; four hours after the first drug delivery, P<0.05): 32%
decline of tumor MVA vs solvent control ([3]; twenty-four hours after the administration, P<0.01): 53%
